# Reference: patent US20100016319A1, “ARYLMETHYLENE UREA DERIVATIVE AND USE THEREOF” (TORAY INDUSTRIES, INC. a corporation of Japan, priority 2005, published 2010)
# Columns and labels:
# DSS-induced colitis = experiment: Dextran sulfate sodium (DSS)-induced colitis model of mice, rectal bleeding score; type: in vivo, BALB/c mice; details: 30 mg/kg orally every day from Day 27 to Day 31; for amelioration of symptoms / improvement in the rectal bleeding score (in words): Day 32; for rectal bleeding score on Day 32 (0: occult blood-negative, 2: occult blood-positive, 4: apparent bleeding): female BALB/c mice, 3 w/v % DSS
# Method: (§1) Female BALB/c mice (Japan SLC) of 7 to 9 weeks old were allowed to freely drink 3 w/v % dextran sulfate sodium (DSS) for 5 to 7 days, and then to freely drink sterilized distilled water for 5 days. This procedure was repeated 3 times to induce colitis. The uninduced (background) group was allowed to freely drink sterilized distilled water. The compound described in Example 2 was orally administered to the mice at a dose of 30 mg/kg every day from Day 27 to Day 31 counted from the start of the test, and rectal bleeding was scored (0: occult blood-negative, 2: occult blood-positive, 4: apparent bleeding) by using the method described by Murthy et al (see, for example, Dig Dis Sci., 38, 1722 (1993)).
# (§2) On the other hand, the same test as in Example 452 was repeated except that 1-(4-(pyridin-4-yloxy)benzyl)-3-(3-t-butylisoxazol-5-yl)urea (the structural formula thereof is shown below) which is a compound included in WO 04/037789 was used in place of the compound of Example 2. The score on Day 32 (the last day of the test) of the colitis-uninduced group was 0, while the score of the colitis-induced group rose to 1.2±0.2.
# as §1, with “Example 10” for “Example 2”
# as §2, with “Example 453” for “Example 452”, “that 1-(4-(pyridin-4-yloxy)benzyl)-3-([…])urea” for “that 1-(4-(pyridin-4-yloxy)benzyl)-3-(3-t-butylisoxazol-5-yl)urea”, “Example 10.” for “Example 2.”
# [1] = tested on: TNFα production in human whole blood; experiment: Inhibitory activity on LPS-induced TNFα production in human whole blood; type: cell-based; details: LPS stimulation, 37° C., 5 hours
# Method: Inhibitory activities of the arylmethylene urea derivatives according to the present invention to the production of TNFα induced by stimulation with a lipopolysaccharide (LPS) were investigated using human whole blood.
# After mixing each of the compounds of the present invention with human blood in a 96-well flat-bottom plate, the lipopolysaccharide (LPS) was added and the mixture was allowed to react at 37° C. for 5 hours. After the reaction, the resulting mixture was centrifuged at room temperature for 15 minutes, and supernatant of the resultant was recovered. For the quantification of TNFα in the supernatant, human cytokine kit (CIS biointernational) was used.
# [2] = tested on: rhythmic bladder contractions; experiment: Rhythmic bladder contractions model in anesthetized rats; type: in vivo, SD rats; details: i.v., 10 mg/kg; 10 minutes before and after administration; FIG. 2
# Description: Using anesthetized rat rhythmic bladder contractions model, the inhibitory effect of the arylmethylene urea derivatives of the present invention on the detrusor hyperreflexia was investigated.
# Female SD rats were anesthetized with an intraperitoneal injection of urethane (1.0 g/kg). A polyethylene tube was inserted from external urethral orifice into the bladder and the tube was fixed by ligating. The other end of the tube was equipped with a three-necked cock, and one of the necks thereof was connected to a pressure transducer for the measurement of intravesical pressure and the other neck was connected to a syringe for the infusion of physiological saline into the bladder. Thirty minutes after the surgery was completed, physiological saline in appropriate volume was infused via the tube in order to induce rhythmic bladder contractions. After stable rhythmic bladder contractions were obtained, a solution of each test compound or the solvent thereof was administered from a caudal vein in a volume of 0.5 mL/kg, and the effect on the frequency of bladder contractions was investigated. As the test compounds, the compounds of Examples 2 and 9 were used.
# In each of the figures, the ordinate indicates the number of rhythmic bladder contractions for 10 minutes before and after administration of the compound.
Compound,IC50 [1] [µM],other results
"CC(C)(C)c1cc(NC(=O)NCc2ccc(Oc3ccncc3)cc2)on1 [1-(4-(pyridin-4-yloxy)benzyl)-3-(3-t-butylisoxazol-5-yl)urea, reference compound]",–,"amelioration of symptoms / improvement in the rectal bleeding score (in words) (DSS-induced colitis): improvement in the score was not observed; rectal bleeding score on Day 32 (0: occult blood-negative, 2: occult blood-positive, 4: apparent bleeding) (DSS-induced colitis): 1.1±0.2"
"Cc1ccc(-n2nc(C(C)(C)C)cc2NC(=O)NCc2ccccc2Oc2cc(N3CCOCC3)ncn2)cc1 [Example 5, 1-(2-(6-morpholinopyrimidin-4-yloxy)benzyl)-3-(3-t-butyl-1-p-tolyl-1H-pyrazol-5-yl)urea]",0.843,melting point: 128.5 °C
"CC(=O)N1CCN(c2nccc(Oc3ccccc3CNC(=O)Nc3cc(C(C)(C)C)nn3-c3ccc(C)cc3)n2)CC1 [Example 10, 1-(2-(2-(4-acetylpiperazin-1-yl)pyrimidin-4-yloxy)benzyl)-3-(3-t-butyl-1-p-tolyl-1H-pyrazol-5-yl)urea]",1.04,"amelioration of symptoms / improvement in the rectal bleeding score (in words) (DSS-induced colitis): marked amelioration of symptoms was observed; rectal bleeding score on Day 32 (0: occult blood-negative, 2: occult blood-positive, 4: apparent bleeding) (DSS-induced colitis): 0.6±0.3"
"Cc1ccc(-n2nc(C(C)(C)C)cc2NC(=O)NCc2ccccc2Oc2ccnc(N3CCCC(C(N)=O)C3)n2)cc1 (stereo not shown) [Example 13, 1-(4-(2-(((((3-t-butyl-1-p-tolyl-1H-pyrazol-5-yl)amino)carbonyl)amino)methyl)phenoxy)pyrimidin-2-yl)-piperidin-3-carboxylic amide]",0.496,–
"Cc1ccc(-n2nc(C(C)(C)C)cc2NC(=O)NCc2ccccc2Oc2ccnc(N3CCC(C(N)=O)CC3)n2)cc1 [Example 14, 1-(4-(2-(((((3-t-butyl-1-p-tolyl-1H-pyrazol-5-yl)amino)carbonyl)amino)methyl)phenoxy)pyrimidin-2-yl)-piperidin-4-carboxylic amide]",0.458,–
"Cc1ccc(-n2nc(CC(C)(C)C)cc2NC(=O)NCc2ccccc2Oc2ccnc(N3CCOCC3)n2)cc1 [Example 28, 1-(2-(2-morpholinopyrimidin-4-yloxy)benzyl)-3-(3-neopentyl-1-p-tolyl-1H-pyrazol-5-yl)urea]",0.513,–
"COc1cc(-n2nc(C(C)(C)C)cc2NC(=O)NCc2ccccc2Oc2ccnc(N3CCOCC3)n2)ccc1C [Example 56, 1-(2-(2-morpholinopyrimidin-4-yloxy)benzyl)-3-(3-t-butyl-1-(3-methoxy-4-methylphenyl)-1H-pyrazol-5-yl)urea]",0.485,–
"Cc1ccc(-n2nc(C(C)(C)C)cc2NC(=O)NCc2cc(F)cc(C)c2Oc2ccnc(Cl)n2)cc1 [Example 85, 1-(2-(2-chloropyrimidin-4-yloxy)-3-methyl-5-fluorobenzyl)-3-(3-t-butyl-1-p-tolyl-1H-pyrazol-5-yl)urea]",0.422,–
CC(C)(C)c1cc(NC(=O)NCc2ccc(Oc3ccncc3)cc2)no1 [reference compound],–,"amelioration of symptoms / improvement in the rectal bleeding score (in words) (DSS-induced colitis): improvement in the score was not observed; rectal bleeding score on Day 32 (0: occult blood-negative, 2: occult blood-positive, 4: apparent bleeding) (DSS-induced colitis): 1.3±0.3"

# Further lines, with some results ahead:
IC50 [1] [µM],Compound,other results
0.119,"Cc1ccc(-n2nc(C(C)(C)C)cc2NC(=O)NCc2ccccc2Oc2ccnc(NCCCN3CCCC3=O)n2)cc1 [Example 6, 1-(2-(2-(3-(2-oxo-pyrrolidin-1-yl)propylamino)pyrimidin-4-yloxy)benzyl)-3-(3-t-butyl-1-p-tolyl-1H-pyrazol-5-yl)urea]",–
0.296,"Cc1ccc(-n2nc(C(C)(C)C)cc2NC(=O)NCc2ccccc2Oc2ccnc(N3CCN(C)CC3)n2)cc1 [Example 7, 1-(2-(2-(4-methylpiperazin-1-yl)pyrimidin-4-yloxy)benzyl)-3-(3-t-butyl-1-p-tolyl-1H-pyrazol-5-yl)urea]",melting point: 149.5 °C
0.231,"Cc1ccc(-n2nc(C(C)(C)C)cc2NC(=O)NCc2cc(F)ccc2Oc2ccnc(N3CCOCC3)n2)cc1 [Example 9, 1-(2-(2-morpholinopyrimidin-4-yloxy)-5-fluorobenzyl)-3-(3-t-butyl-1-p-tolyl-1H-pyrazol-5-yl)urea]",effect on the number of rhythmic bladder contractions [2]: inhibited the rhythmic bladder contractions statistically significantly
0.249,"Cc1ccc(-n2nc(C(C)(C)C)cc2NC(=O)NCc2ccccc2Oc2ccnc(NCCCN(C)C)n2)cc1 [Example 11, 1-(2-(2-(3-(dimethylamino)propylamino)pyrimidin-4-yloxy)benzyl)-3-(3-t-butyl-1-p-tolyl-1H-pyrazol-5-yl)urea]",–
0.268,"COCCN1CCN(c2nccc(Oc3ccccc3CNC(=O)Nc3cc(C(C)(C)C)nn3-c3ccc(C)cc3)n2)CC1 [Example 12, 1-(2-(2-(4-(2-methoxyethyl)piperazin-1-yl)pyrimidin-4-yloxy)benzyl)-3-(3-t-butyl-1-p-tolyl-1H-pyrazol-5-yl)urea]",–
0.311,"CCN(CC)CCCNc1nccc(Oc2ccccc2CNC(=O)Nc2cc(C(C)(C)C)nn2-c2ccc(C)cc2)n1 [Example 18, 1-(2-(2-(3-(diethylamino)propylamino)pyrimidin-4-yloxy)benzyl)-3-(3-t-butyl-1-p-tolyl-1H-pyrazol-5-yl)urea]",–
0.343,"Cc1ccc(-n2nc(C(C)(C)C)cc2NC(=O)NCc2ccccc2Oc2ccnc(NCCC3CCCN3C)n2)cc1 (stereo not shown) [Example 20, 1-(2-(2-(2-(1-methylpyrrolidin-2-yl)ethylamino)pyrimidin-4-yloxy)benzyl)-3-(3-t-butyl-1-p-tolyl-1H-pyrazol-5-yl)urea]",–
0.354,"Cc1ccc(-n2nc(C(C)(C)C)cc2NC(=O)NCc2ccccc2Oc2cc(N3CCCC(C(N)=O)C3)ncn2)cc1 (stereo not shown) [Example 82, 1-(6-(2-(3-(5-t-butyl-2-p-tolyl-2H-pyrazol-3-yl)-ureidomethyl)phenoxy)pyrimidin-4-yl)piperidin-3-carboxylic amide]",–
0.298,"Cc1ccc(-n2nc(C(C)(C)C)cc2NC(=O)NCc2ccccc2Oc2cc(C)nc(N3CCOCC3)n2)cc1 [Example 98, 1-(2-(6-methyl-2-morpholinopyrimidin-4-yloxy)benzyl)-3-(3-t-butyl-1-p-tolyl-1H-pyrazol-5-yl)urea]",–
